We go through one compound from BindingDB's records for doi:10.1021/jm060653b (Pfizer, 2007).

Molecules are shown by their SMILES. pKi: −log10 of the molar value.

The term pKi denotes the Ki on a negative log10 scale, so that one unit is a factor of ten. A low value points to a high Ki.

The target in the experiment is T1, cAMP and cAMP-inhibited cGMP 3',5'-cyclic phosphodiesterase 10A (Rattus norvegicus, UniProt Q9QYJ6).
T1 sequence (Q9QYJ6 whole entry): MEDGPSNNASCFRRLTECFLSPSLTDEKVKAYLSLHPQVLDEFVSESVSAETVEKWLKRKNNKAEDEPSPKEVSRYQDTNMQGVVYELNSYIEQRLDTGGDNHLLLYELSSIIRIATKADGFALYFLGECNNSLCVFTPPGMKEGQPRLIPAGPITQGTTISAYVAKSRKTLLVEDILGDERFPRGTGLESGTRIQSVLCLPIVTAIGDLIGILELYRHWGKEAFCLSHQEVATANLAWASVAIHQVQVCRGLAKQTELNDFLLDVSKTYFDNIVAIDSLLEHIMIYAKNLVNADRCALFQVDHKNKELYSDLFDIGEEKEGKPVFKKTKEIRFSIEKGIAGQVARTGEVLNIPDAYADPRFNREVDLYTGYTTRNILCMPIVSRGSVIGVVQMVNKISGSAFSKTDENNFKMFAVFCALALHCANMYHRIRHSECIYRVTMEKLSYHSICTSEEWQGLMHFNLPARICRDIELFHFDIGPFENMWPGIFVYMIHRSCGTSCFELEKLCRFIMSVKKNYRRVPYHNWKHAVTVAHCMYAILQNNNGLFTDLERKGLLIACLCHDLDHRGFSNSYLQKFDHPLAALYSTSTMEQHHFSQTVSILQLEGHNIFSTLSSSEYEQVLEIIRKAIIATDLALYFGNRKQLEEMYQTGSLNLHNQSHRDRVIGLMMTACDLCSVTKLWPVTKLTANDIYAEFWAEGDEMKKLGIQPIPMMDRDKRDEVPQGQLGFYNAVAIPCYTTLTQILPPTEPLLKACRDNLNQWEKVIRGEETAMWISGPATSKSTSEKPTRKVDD
Nature of the experiment: PDE Competitive Enzyme Inhibition Assay. Conditions: pH 7.5; 22 °C. An excerpt:
PDE activity was monitored by measuring the hydrolysis of [3H]-cAMP to [3H]-AMP using a scintillation proximity assay (SPA). [3H]-AMP was captured by the SPA beads, and quantified on a TopCount plate reader.

In turn, `COc1cc2ncnc(N3CC[C@@H](Oc4ccc(C(C)(C)C)cc4)C3)c2cc1OC` [(R)-4-[3-(4-tert-Butyl-phenoxy)-pyrrolidin-1-yl]-6,7-dimethoxy-quinazoline] showed a pKi of 7.00.
